# Test results from US4220643A, “Nitrosourea pentose compounds” (priority 1977, dated 1980).
# Assays:
# Leukemia L 1210 cells = test: Anti-leukemic activity on Leukemia L 1210 in mice (60 days observation); type: in vivo, mice (male BDF1); conditions: for ILS (percentage increase in life-span) / Mean survival days: 60 days observation
# Description: The anti-leukemic activity of both the anomers of this invention was tested on Leukemia L 1210 in mice, details of which are given below. By way of comparison, the 1-methyl homologue of the β-anomer of this invention, i.e. 1-methyl-1-nitroso-3-(β-D-ribofuranosyl) urea (refer to T. Suami et al., Japanese Patent Prepublication No. 83365/75), was tested in a similar way.
# Male BDF1 mice, aged about 7-weeks old and weighing 22±3 g were used in groups of three animals each for the test of compounds No. 1 and No. 2 or of two animals each for the test of compound No. 3.
# Leukemia L 1210 cells were used. For the test of compounds No. 1 and No. 2, 2×10^6 cells/0.04 ml/mouse were intraperitoneally inoculated and for the test of compound No. 3, 1.8×10^6 /0.04 ml/mouse were intraperitoneally inoculated.
# The test compound was dissolved in a physiological salt solution to give a series of solutions in predetermined concentrations and 0.1 ml of the each solution was administered intraperitoneally to each mouse once a day from the 24th hour after the tumor cell inoculation for 3 consecutive days for the test of compounds No. 1 and No. 2 or for 2 consecutive days for the test of compound No. 3. The anti-leukemic activity of the compounds tested was assessed by mean survival days, percentage increase in life-span, number of survivors after 60 days observation and the volume of ascites. The percentage increase in life-span (ILS) was calculated as follows: […]
# T: The mean survival days of the treated animals
# C: The mean survival days of the untreated animals
# The control test for this purpose was carried out in the same way as that used for the test of compounds No. 1 and No. 2 or for the test of compound No. 3 except that 0.1 ml of the physiological salt solution was administered in place of the solution of the test compound.
# [1] = Acute toxicity in intraperitoneal administration to BDF1 mice; conditions: mouse, in vivo, ip
# Text: The nitrosourea compounds according to this invention are further characterized by their low toxicity. Thus, acute toxicity of the compounds in intraperitoneal administration to BDF1 mice is as follows: […]
# experimental tumors = conditions: wide variety of experimental tumors; refers to U.S. Pat. No. 4,086,415; cited from earlier work
# [2] = 1 mg/kg i.p. once daily, 3 consecutive days
# [3] = 2 mg/kg i.p. once daily, 3 consecutive days
# [4] = 2 mg/kg i.p. once daily, 3 consecutive days, untreated control 4.5 ml
# [5] = 4 mg/kg i.p. once daily, 3 consecutive days
# [6] = 4 mg/kg i.p. once daily, 3 consecutive days, untreated control 4.5 ml
# [7] = 8 mg/kg i.p. once daily, 3 consecutive days
# [8] = 8 mg/kg i.p. once daily, 3 consecutive days, untreated control 4.5 ml
# [9] = 16 mg/kg i.p. once daily, 3 consecutive days
# [10] = 16 mg/kg i.p. once daily, 3 consecutive days, untreated control 4.5 ml
# [11] = 50 mg/kg i.p. once daily, 2 consecutive days
# [12] = 100 mg/kg i.p. once daily, 2 consecutive days
# [13] = 200 mg/kg i.p. once daily, 2 consecutive days
# [14] = 250 mg/kg i.p. once daily, 2 consecutive days
# [15] = dose not given, i.p. once daily, 3 consecutive days
Compound,Number of survivors (after 60 days) (Leukemia L 1210 cells; [3]),ILS (percentage increase in life-span) (Leukemia L 1210 cells; [3]),Mean survival days (Leukemia L 1210 cells; [3]),Volume of ascites (Leukemia L 1210 cells; [4]),Number of survivors (after 60 days) (Leukemia L 1210 cells; [5]),ILS (percentage increase in life-span) (Leukemia L 1210 cells; [5]),Mean survival days (Leukemia L 1210 cells; [5]),Volume of ascites (Leukemia L 1210 cells; [6]),Number of survivors (after 60 days) (Leukemia L 1210 cells; [7]),ILS (percentage increase in life-span) (Leukemia L 1210 cells; [7]),Mean survival days (Leukemia L 1210 cells; [7]),Volume of ascites (Leukemia L 1210 cells; [8]),Number of survivors (after 60 days) (Leukemia L 1210 cells; [9]),ILS (percentage increase in life-span) (Leukemia L 1210 cells; [9]),Mean survival days (Leukemia L 1210 cells; [9]),Volume of ascites (Leukemia L 1210 cells; [10]),LD50 [1],also measured
"O=NN(CCCl)C(=O)N[C@H]1O[C@H](CO)[C@@H](O)[C@H]1O [compound 1, 1-(2-chloroethyl)-1-nitroso-3-(α-D-ribofuranosyl) urea]",0/3,50.0%,15.3 days,0 mL,2/3,> 383.0%,> 48.3 days,0 mL,2/3,> 323.0%,> 42.3 days,0 mL,0/3,13.0%,11.3 days,0 mL,34 mg/kg,"Number of survivors (after 60 days) (Leukemia L 1210 cells; [2]): 0/3; ILS (percentage increase in life-span) (Leukemia L 1210 cells; [2]): 37.0%; Mean survival days (Leukemia L 1210 cells; [2]): 13.7 days; Volume of ascites (Leukemia L 1210 cells; 1 mg/kg i.p. once daily, 3 consecutive days, untreated control 4.5 ml): 1.7 mL"
"O=NN(CCCl)C(=O)N[C@@H]1O[C@H](CO)[C@@H](O)[C@H](O)[C@H]1O [GANU, 1-(2-chloroethyl)-3-(β-D-glucopyranosyl)-1-nitrosourea]",,,,,,,,,,,,,,,,,,"Antitumor activity, in words (experimental tumors): broad spectrum of antitumor activity against a wide variety of experimental tumors"
"CN(N=O)C(=O)N[C@@H]1O[C@H](CO)[C@@H](O)[C@H]1O [compound 3, 1-methyl-1-nitroso-3-(β-D-ribofuranosyl) urea, reference compound]",,,,,,,,,,,,,,,,,,"Number of survivors (after 60 days) (Leukemia L 1210 cells; [11]): 0/2; ILS (percentage increase in life-span) (Leukemia L 1210 cells; [11]): 50.0%; Mean survival days (Leukemia L 1210 cells; [11]): 15.0 days; Volume of ascites (Leukemia L 1210 cells; 50 mg/kg i.p. once daily, 2 consecutive days, untreated control 5.3 ml): 4.6 mL; Number of survivors (after 60 days) (Leukemia L 1210 cells; [12]): 0/2; ILS (percentage increase in life-span) (Leukemia L 1210 cells; [12]): 50.0%; Mean survival days (Leukemia L 1210 cells; [12]): 15.0 days; Volume of ascites (Leukemia L 1210 cells; 100 mg/kg i.p. once daily, 2 consecutive days, untreated control 5.3 ml): 0.7 mL; Number of survivors (after 60 days) (Leukemia L 1210 cells; [13]): 0/2; ILS (percentage increase in life-span) (Leukemia L 1210 cells; [13]): 80.0%; Mean survival days (Leukemia L 1210 cells; [13]): 18.0 days; Volume of ascites (Leukemia L 1210 cells; 200 mg/kg i.p. once daily, 2 consecutive days, untreated control 5.3 ml): 0.3 mL; Number of survivors (after 60 days) (Leukemia L 1210 cells; [14]): 0/2; ILS (percentage increase in life-span) (Leukemia L 1210 cells; [14]): 15.0%; Mean survival days (Leukemia L 1210 cells; [14]): 11.5 days; Volume of ascites (Leukemia L 1210 cells; 250 mg/kg i.p. once daily, 2 consecutive days, untreated control 5.3 ml): 0.6 mL"
"O=NN(CCCl)C(=O)N[C@@H]1O[C@H](CO)[C@@H](O)[C@H]1O [compound 2, 1-(2-chloroethyl)-1-nitroso-3-(β-D-ribofuranosyl) urea]",1/3,> 223.0%,> 32.3 days,0 mL,2/3,> 360.0%,> 46.0 days,0 mL,3/3,> 500.0%,> 60.0 days,0 mL,0/3,-13.0%,8.7 days,0 mL,30 mg/kg,"Number of survivors (after 60 days) (Leukemia L 1210 cells; [15]): 0/3; ILS (percentage increase in life-span) (Leukemia L 1210 cells; [15]): 53.0%; Mean survival days (Leukemia L 1210 cells; [15]): 15.3 days; Volume of ascites (Leukemia L 1210 cells; dose not given, i.p. once daily, 3 consecutive days, untreated control 4.5 ml): 2.5 mL"
